Assay results taken from patent EP0354453A2, “Antimicrobial agent for animals” (priority 1988, dated 1990).

Tests used:
[1] = tested on: Bordetella bronchiaseptica AR3; test: in vitro antimicrobial activity (MIC), agar dilution, Part 1; type: cell-based; details: Bordetella bronchiaseptica AR3, Pig; Mueller Hinton agar, 37°C, 18-24 hours
Protocol: (§1) Test microorganisms listed in Table 2 were cultured overnight in heart infusion nutrient broth (produced by Eiken Chemical Co., Ltd.). Culture broth containing about 10⁸/ml cells was diluted to a volume of 100 times. An aliquot (about 0.05 ml) of the diluted broth was inoculated onto a Mueller Hinton agar plate (produced by Eiken Chemical Co., Ltd.) to which Compound No. 1 was added in a prescribed concentration. […]

Escherichia coli 15-4 = test: as above; type: cell-based; details: 154; Escherichia coli 15-4, Cow; Mueller Hinton agar, 37°C, 18-24 hours
Protocol: as §1

Escherichia coli 164 = test: as above; type: cell-based; details: Escherichia coli 164, Pig; Mueller Hinton agar, 37°C, 18-24 hours
Protocol: as §1

Escherichia coli 442 = test: as above; type: cell-based; details: Escherichia coli 442, Chicken; Mueller Hinton agar, 37°C, 18-24 hours
Protocol: as §1

[2] = tested on: Salmonella typhimurium 101; test: as above; type: cell-based; details: Salmonella enterica; Salmonella typhimurium 101, Chicken; Mueller Hinton agar, 37°C, 18-24 hours
Protocol: as §1

[3] = tested on: Salmonella typhimurium 595; test: as above; type: cell-based; details: Salmonella enterica; Salmonella typhimurium 595, Pig; Mueller Hinton agar, 37°C, 18-24 hours
Protocol: as §1

[4] = tested on: Staphylococcus aureus Aichi 2; test: as above; type: cell-based; details: AICHI2; Staphylococcus aureus Aichi 2, Chicken; Mueller Hinton agar, 37°C, 18-24 hours
Protocol: as §1

[5] = tested on: Bordetella bronchiaseptica OKM-1; test: in vitro antimicrobial activity (MIC), agar dilution, Part 2; type: cell-based; details: Bordetella, OKM1, Bordetella bronchiaseptica OKM-1, Pig; read-out: MIC
Protocol: as §1
(§2) MIC of Compounds (1)-(8) against various pathogenic bacteria derived from animals was determined in the same manner as in Example 1.

Escherichia coli 139 = test: as above; type: cell-based; details: Escherichia coli 139, Cow; read-out: MIC
Protocol: as §1, §2

Escherichia coli 881 = test: as above; type: cell-based; details: Escherichia coli, 881, Escherichia coli 881, Pig; read-out: MIC
Protocol: as §1, §2

Escherichia coli S6W = test: as above; type: cell-based; details: Escherichia coli, S6W, Escherichia coli S6W, Chicken; read-out: MIC
Protocol: as §1, §2

[6] = tested on: Salmonella typhimurium 103; test: as above; type: cell-based; details: Salmonella enterica; Salmonella typhimurium 103, Chicken; read-out: MIC
Protocol: as §1, §2

[7] = tested on: Salmonella typhimurium 569; test: as above; type: cell-based; details: Salmonella enterica, TYPHIMURIUM, Salmonella typhimurium 569, Pig; read-out: MIC
Protocol: as §1, §2

[8] = tested on: Staphylococcus aureus Yamaguchi 6; test: as above; type: cell-based; details: Staphylococcus aureus Yamaguchi 6, Chicken; read-out: MIC
Protocol: as §1, §2

[9] = tested on: Mycoplasma gallisepticum Strain 2004; test: in vitro antimicrobial activity (MIC) in Frey liquid medium; type: cell-based; details: Mycoplasmoides gallisepticum, STRAIN2004; Mycoplasma gallisepticum Strain 2004, from chicken; Frey liquid medium, 37°C, 3-5 days; read-out: MIC
Protocol: (§3) Various test strains of Mycoplasma gallisepticum derived from chicken were cultured in a Frey liquid medium for Mycoplasma for 3 days. The culture broth containing about 10⁸/ml cells was diluted to a volume of 100 times. The diluted broth was inoculated into Frey liquid media for Mycoplasma to which the compounds of this invention were added at prescribed concentrations. The cells were incubated at 37°C for 3-5 days while daily observing the color of the media. Among the culture broths maintaining yellow color at the time when the control to which no test compound was added turned red, the concentration of the broth having the minimum concentration was taken as the MIC of the compound.

[10] = tested on: Mycoplasma gallisepticum Strain 2012; test: as above; type: cell-based; details: Mycoplasmoides gallisepticum, STRAIN2012; Mycoplasma gallisepticum Strain 2012, from chicken; Frey liquid medium, 37°C, 3-5 days; read-out: MIC
Protocol: as §3

[11] = tested on: Mycoplasma gallisepticum Strain DP-1047; test: as above; type: cell-based; details: Mycoplasmoides gallisepticum; Mycoplasma gallisepticum Strain DP-1047, from chicken; Frey liquid medium, 37°C, 3-5 days; read-out: MIC
Protocol: as §3

[12] = tested on: Mycoplasma gallisepticum Strain T-2; test: as above; type: cell-based; details: Mycoplasmoides gallisepticum; Mycoplasma gallisepticum Strain T-2, from chicken; Frey liquid medium, 37°C, 3-5 days; read-out: MIC
Protocol: as §3

[13] = tested on: Mycoplasma gallisepticum Strain T-7; test: as above; type: cell-based; details: Mycoplasmoides gallisepticum, Mycoplasma gallisepticum Strain T-7, from chicken, 37°C, 3-5 days
Protocol: as §3

Escherichia coli = test: Effect of oral administration on chicken inoculated with Escherichia coli; type: in vivo; details: for Chickens developing disease in air sac (naked eye observation) / No. of dead chickens: 5 tested chickens
Protocol: Escherichia coli cells collected from infected chicken were cultured overnight in a trypticase soy broth (BBL). 0.2 ml of this culture broth was injected into the trachea of chickens of average body weight of 80 g using a 1 ml disposable injection needle. Beginning 2 hours after the inoculation, feeds to which Compound (1) had been added in the amount of 50 ppm, 25 ppm, or 12.5 ppm were freely given to the chickens for 5 days. Following the administration of Compound (1) the chickens were given feed with no addition of drug for 5 days. The surviving chickens were sacrificed and dissected. After examination of the degree of disease in the air sac, Escherichia coli in the trachea, lung, and air sac were quantitatively determined. […]

Mycoplasma gallisepticum = test: Effect of oral administration on chicken inoculated with Mycoplasma gallisepticum; type: in vivo; details: for Chickens developing disease in air sac (naked eye observation) / No. of dead chickens: 5 tested chickens
Protocol: Mycoplasma gallisepticum cells collected from chickens having respiratory Mycoplasma infection were cultured for 3 days in a Frey liquid media for Mycoplasma. 0.2 ml of this culture broth was injected into the trachea of chickens of an average body weight of 80 g using a 1 ml disposable injection needle. Beginning from the next day following the inoculation, feeds to which Compound (1) had been added in the amount of 100 ppm, 75 ppm, or 50 ppm were freely given to the chickens for 5 days. Following the administration of Compound (1) the chickens were given feed containing no drug for a further 5 days. The surviving chickens were sacrificed and dissected. After examination of the degree of disease in the air sac, Mycoplasma gallisepticum in the infraorbital sinus, trachea, lung, and air sac were determined. […] TABLE 6 […]

[14] = tested on: pathogenic bacteria derived from animals; test: in vitro antimicrobial activity, Part 1, overall comparison; type: cell-based; details: summary of Table 2
Protocol: as §1

SMILES: C[C@H]1COc2c(N3CCN(C)CC3)c(F)cc3c(=O)c(C(=O)O)cn1c23 [Compound (1), 3S-9-fluoro-2,3-dihydro-3-methyl-10-(4-methyl-1-piperazinyl)-7-oxo-7H-pyrido[1,2,3-de] [1,4]benzoxazine-6-carboxylic acid hemihydrate]
- MIC [1]: 0.2 µg/mL
- MIC (Escherichia coli 15-4): 0.05 µg/mL
- MIC (Escherichia coli 164): 0.05 µg/mL
- MIC (Escherichia coli 442): 0.025 µg/mL
- MIC [2]: 0.025 µg/mL
- MIC [3]: 0.05 µg/mL
- MIC [4]: 0.1 µg/mL
- MIC [5]: 0.2 µg/mL
- MIC (Escherichia coli 139): 0.05 µg/mL
- MIC (Escherichia coli 881): 0.05 µg/mL
- MIC (Escherichia coli S6W): 0.025 µg/mL
- MIC [6]: 0.05 µg/mL
- MIC [7]: 0.05 µg/mL
- MIC [8]: 0.05 µg/mL
- MIC [9]: 0.0125 µg/mL
- MIC [10]: 0.025 µg/mL
- MIC [11]: 0.025 µg/mL
- MIC [12]: 0.05 µg/mL
- MIC [13]: 0.05 µg/mL
- Escherichia coli collected in Air sac (Escherichia coli; 12.5 ppm in feed for 5 days): 3.99 Logarithmic number of collected cells per 1 g of tissue
- Escherichia coli collected in Lung (Escherichia coli; 12.5 ppm in feed for 5 days): 2.78 Logarithmic number of collected cells per 1 g of tissue
- Escherichia coli collected in Trachea (Escherichia coli; 12.5 ppm in feed for 5 days): 2.78 Logarithmic number of collected cells per 1 g of tissue
- Chickens developing disease in air sac (naked eye observation) (Escherichia coli; 12.5 ppm in feed for 5 days): 3
- No. of dead chickens (Escherichia coli; 12.5 ppm in feed for 5 days): 1
- Escherichia coli collected in Air sac (Escherichia coli; 25 ppm in feed for 5 days): 0 Logarithmic number of collected cells per 1 g of tissue
- Escherichia coli collected in Lung (Escherichia coli; 25 ppm in feed for 5 days): 0 Logarithmic number of collected cells per 1 g of tissue
- Escherichia coli collected in Trachea (Escherichia coli; 25 ppm in feed for 5 days): 0 Logarithmic number of collected cells per 1 g of tissue
- Chickens developing disease in air sac (naked eye observation) (Escherichia coli; 25 ppm in feed for 5 days): 1
- No. of dead chickens (Escherichia coli; 25 ppm in feed for 5 days): 0
- Escherichia coli collected in Air sac (Escherichia coli; 50 ppm in feed for 5 days): 0 Logarithmic number of collected cells per 1 g of tissue
- Escherichia coli collected in Lung (Escherichia coli; 50 ppm in feed for 5 days): 0 Logarithmic number of collected cells per 1 g of tissue
- Escherichia coli collected in Trachea (Escherichia coli; 50 ppm in feed for 5 days): 0 Logarithmic number of collected cells per 1 g of tissue
- Chickens developing disease in air sac (naked eye observation) (Escherichia coli; 50 ppm in feed for 5 days): 0
- No. of dead chickens (Escherichia coli; 50 ppm in feed for 5 days): 0
- Mycoplasma gallisepticum collected in Air sac (Mycoplasma gallisepticum; 50 ppm in feed for 5 days): 2.32 Logarithmic number of collected cells per 1 g of tissue
- Mycoplasma gallisepticum collected in Infraorbital sinus (Mycoplasma gallisepticum; 50 ppm in feed for 5 days): 0/5
- Mycoplasma gallisepticum collected in Lung (Mycoplasma gallisepticum; 50 ppm in feed for 5 days): 0 Logarithmic number of collected cells per 1 g of tissue
- Mycoplasma gallisepticum collected in Trachea (Mycoplasma gallisepticum; 50 ppm in feed for 5 days): 0 Logarithmic number of collected cells per 1 g of tissue
- Chickens developing disease in air sac (naked eye observation) (Mycoplasma gallisepticum; 50 ppm in feed for 5 days): 0
- No. of dead chickens (Mycoplasma gallisepticum; 50 ppm in feed for 5 days): 0
- Mycoplasma gallisepticum collected in Air sac (Mycoplasma gallisepticum; 75 ppm in feed for 5 days): 0 Logarithmic number of collected cells per 1 g of tissue
- Mycoplasma gallisepticum collected in Infraorbital sinus (Mycoplasma gallisepticum; 75 ppm in feed for 5 days): 0/5
- Mycoplasma gallisepticum collected in Lung (Mycoplasma gallisepticum; 75 ppm in feed for 5 days): 0 Logarithmic number of collected cells per 1 g of tissue
- Mycoplasma gallisepticum collected in Trachea (Mycoplasma gallisepticum; 75 ppm in feed for 5 days): 0 Logarithmic number of collected cells per 1 g of tissue
- Chickens developing disease in air sac (naked eye observation) (Mycoplasma gallisepticum; 75 ppm in feed for 5 days): 0
- No. of dead chickens (Mycoplasma gallisepticum; 75 ppm in feed for 5 days): 0
- Mycoplasma gallisepticum collected in Air sac (Mycoplasma gallisepticum; 100 ppm in feed for 5 days): 0 Logarithmic number of collected cells per 1 g of tissue
- Mycoplasma gallisepticum collected in Infraorbital sinus (Mycoplasma gallisepticum; 100 ppm in feed for 5 days): 0/5
- Mycoplasma gallisepticum collected in Lung (Mycoplasma gallisepticum; 100 ppm in feed for 5 days): 0 Logarithmic number of collected cells per 1 g of tissue
- Mycoplasma gallisepticum collected in Trachea (Mycoplasma gallisepticum; 100 ppm in feed for 5 days): 0 Logarithmic number of collected cells per 1 g of tissue
- Chickens developing disease in air sac (naked eye observation) (Mycoplasma gallisepticum; 100 ppm in feed for 5 days): 0
- No. of dead chickens (Mycoplasma gallisepticum; 100 ppm in feed for 5 days): 0
- antimicrobial activities compared with Ofloxacin [14]: higher antimicrobial activities than its known racemic isomer (Ofloxacin)
